# According to patent publication US8840873B2, “Method of treating second and third degree burns using oxidative reductive potential water solution” (priority 2005, dated 2014):
# Read-outs that look alike come from different tables or passages of the source.
# Experiments:
# primary HDF cultures = assay: SA-β-galactosidase expression in HDFs after chronic exposure; format: cell-based, human; settings: 20 population doublings (one month), ORP water solution 10% or HP 5 μM
# Text: The results are depicted in FIG. 6.
# [1] = test system: human diploid fibroblasts (HDFs); assay: 8-OHdG DNA adducts in HDFs (ELISA); settings: HP 500 μM
# [2] = test system: human diploid fibroblasts (HDFs); assay: Cell viability, apoptosis and necrosis in HDFs by flow cytometry; settings: for apoptosis (Annexin-V): 880 mM HP; for necrosis (cells incorporating propidium iodide) / Cell viability (7AAD): pure ORP water solution or 880 mM HP
# [3] = test system: murine polychromatic erythrocytes (bone marrow); settings: mice; for PCE/NCE ratio: intraperitoneal, cyclophosphamide 8 mg/mL, 12.5 ml/kg on day 2
# Description: The mammalian in vivo micronucleus test is used for the identification of substances which cause damage to chromosomes or the mitotic apparatus of murine polychromatic erythrocytes. This damage results in the formation of “micronuclei,” intracellular structures containing lagging chromosome fragments or isolated whole chromosomes. […] The positive control mice received a single intraperitoneal injection of cyclophosphamide (8 mg/mL, 12.5 ml/kg) on day 2. All mice were observed immediately after injection for any adverse reactions. […] On day 3, all mice were weighed and terminated.
# The femurs were excised from the terminated mice, the bone marrow was extracted, and duplicate smear preparations were performed for each mouse. The bone marrow slides for each animal were read at 40× magnification. The ratio of polychromatic erythrocytes (PCE) to normochromatic erythrocytes (NCE), an index of bone marrow toxicity, was determined for each mouse by counting a total of at least 200 erythrocytes. Then a minimum of 2000 scoreable PCE per mouse were evaluated for the incidence of micronucleated polychromatic erythrocytes. Statistical analysis of the data were done using the Mann and Whitney test (at 5% risk threshold) from a statistical software package (Statview 5.0, SAS Institute Inc., USA).
Compound,cells expressing SA-β-Gal (primary HDF cultures) [%],8-OHdG adducts relative to control-treated cells ([1]; 30 minutes treatment then 3 hour recovery in supplemented DMEM),"8-OHdG adducts relative to control-treated cells ([1]; 30 minutes treatment, DNA extracted right after exposure)",apoptosis (Annexin-V) ([2]; 5 min exposure) [%],necrosis (cells incorporating propidium iodide) ([2]; 5 min exposure) [%],Cell viability (7AAD) ([2]; 5 minute exposure) [%],apoptosis (Annexin-V) ([2]; 30 min exposure) [%],Cell viability (7AAD) ([2]; 30 min exposure) [%],necrosis (cells incorporating propidium iodide) ([2]; 30 min exposure) [%],PCE/NCE ratio ([3]; females),"number of polychromatic erythrocytes bearing micronuclei ([3]; males, intraperitoneal 12.5 ml/kg)",PCE/NCE ratio ([3]; males)
"OO [HP, hydrogen peroxide]",86,about 5 times,about 25 fold,15,20,55,20,5,75,,,
O=P1(N(CCCl)CCCl)NCCCO1 (stereo not drawn) [cyclophosphamide],,,,,,,,,,0.73,11.0,0.77
